Source: US20050048088A1, “Compositions comprising at least two nanoemulsions” (priority 2003, published 2005)

Experiment: Recrystallization of CoQ10 from warm oil/alcohol solution on cooling to room temperature
Assay type: physicochemical
Details: cooled to room temperature (25° C.)
Method: (§1) 30 g of lecithin were dissolved in 100 g of alcohol and added with stirring to 520 g of water and 200 g of glycerin. 10 g of Coenzyme Q10 (ubichinone) [CoQ10] were dissolved at 40° C. in 40 g of vegetable oil and 100 g of alcohol (ethanol). […] Therefore, the CoQ10 solution, having a temperature of 40° C., was added to the lecithin/alcohol/glycerin/water mixture and then homogenized six times at 1200 bar (1.2·10^8 Pa) using a high pressure homgenizer of Microfluidics Corp (MT 110®), Thereby, the alcohol was homogeneously distributed in the nanoemulsion. An orange transparent nanoemulsion was obtained.
as §1, with “50 g” for “30 g”, “to 430” for “to 520”, “glycerin. 80” for “glycerin. 10”, “at 45°” for “at 40°”, “pressure homogenizer” for “pressure homgenizer”, “(MT 110®).” for “(MT 110®),”

SMILES: COC1=C(OC)C(=O)C(C/C=C(\C)CC/C=C(\C)CC/C=C(\C)CC/C=C(\C)CC/C=C(\C)CC/C=C(\C)CC/C=C(\C)CC/C=C(\C)CC/C=C(\C)CCC=C(C)C)=C(C)C1=O [CoQ10, Coenzyme Q10]
- behaviour of CoQ10 solution on cooling (10 g CoQ10 dissolved at 40° C. in 40 g vegetable oil and 100 g alcohol): most of the CoQ10 recrystallizes out from the solution after some hours
- behaviour of CoQ10 solution on cooling (80 g CoQ10 dissolved at 45° C. in 40 g vegetable oil and 100 g alcohol): most of the CoQ10 recrystallized out from the solution after some hours
